# Read-outs that look alike come from different tables or passages of the source.
# Legend:
# S. epidermidis [1] = experiment: Minimum inhibitory concentration in Trypticase Soy Broth, synergy (fractional inhibitory concentration); assay type: cell-based, Staphylococcus epidermidis
# S. epidermidis [2] = assay type: cell-based, Staphylococcus epidermidis
# Pseudomonas aeruginosa = experiment: Zones of inhibition of treated catheter segments on seeded trypticase soy agar plates, 24 hours
# [3] = tetrahydrofuran/methanol solvent systems
# [4] = 10-20 passages, inoculum 10^4 cfu/ml
# [5] = 10 transfers, inoculum 10^6 cfu/ml
# [6] = catheter treated with 2% bismuth salt
# [7] = catheter treated with 2% bismuth salt + 3% minocycline
molecule,measurement,setting,value
"Oc1cc(Cl)ccc1Oc1ccc(Cl)cc1Cl [Triclosan (T), triclosan]",MIC,"S. epidermidis [1]; Staphylococcus epidermidis, 24 h",0.35 µg/mL
same,INCREASE IN MIC (fold),S. epidermidis [2]; [4],7 fold
same,INCREASE IN MIC (fold),S. epidermidis [2]; [5],7 fold
"CN(C)c1ccc(O)c2c1C[C@H]1C[C@H]3[C@H](N(C)C)C(O)=C(C(N)=O)C(=O)[C@@]3(O)C(O)=C1C2=O [Minocycline (M), minocycline]",INCREASE IN MIC (fold),S. epidermidis [2]; [4],2 fold
same,INCREASE IN MIC (fold),S. epidermidis [2]; [5],4 fold
"CC(=O)O.CC(=O)O.NC(=N\CCCCCC/N=C(N)/N=C(\N)Nc1ccc(Cl)cc1)/N=C(\N)Nc1ccc(Cl)cc1 [Chlorhexidine (CHX), chlorhexidine diacetate]",MIC,S. epidermidis [1]; inoculum of 10^4 cfu/ml,0.5 µg/mL
same,INCREASE IN MIC (fold),S. epidermidis [2],2 fold
same,MIC (μg/ml) AFTER PASSAGE,S. epidermidis [2],1.0 µg/mL
same,MIC (μg/ml) BEFORE PASSAGE,S. epidermidis [2],0.5 µg/mL
"CC(=O)[O-].CC(=O)[O-].CC(=O)[O-].[Bi+3] [Bismuth acetate, bismuth acetate]",Zones of Inhibition Against Pseudomonas aeruginosa (mm) 2% Bismuth Salt,Pseudomonas aeruginosa,0 mm
same,Zones of Inhibition Against Pseudomonas aeruginosa (mm) 2% Bismuth Salt + 3% Minocycline,Pseudomonas aeruginosa,17 mm
"CCn1cc(C(=O)O)c(=O)c2cc(F)c(N3CCNCC3)cc21 [Norfloxacin (Nf), norfloxacin]",upper limit incorporated (low solubility in tetrahydrofuran/methanol),[3],about 0.5 percent (w/v)
same,INCREASE IN MIC (fold),S. epidermidis [2]; [4],40 fold
polyhexamethylenebiguanide [PHMB],INCREASE IN MIC (fold),S. epidermidis [2],1.0 fold
same,MIC (μg/ml) AFTER PASSAGE,S. epidermidis [2],0.31 µg/mL
same,MIC (μg/ml) BEFORE PASSAGE,S. epidermidis [2],0.31 µg/mL
"O=C([O-])c1ccccc1.O=C([O-])c1ccccc1.O=C([O-])c1ccccc1.[Bi+3] [Bismuth benzoate, bismuth benzoate]",Zones of Inhibition Against Pseudomonas aeruginosa (mm) 2% Bismuth Salt,Pseudomonas aeruginosa,0 mm
same,Zones of Inhibition Against Pseudomonas aeruginosa (mm) 2% Bismuth Salt + 3% Minocycline,Pseudomonas aeruginosa,18 mm
"NC[C@H]1O[C@H](O[C@H]2[C@H](O)[C@@H](O[C@H]3O[C@H](CO)[C@@H](O)[C@H](N)[C@H]3O)[C@H](N)C[C@@H]2N)[C@H](N)C[C@@H]1O [Tobramycin (Tb), tobramycin]",INCREASE IN MIC (fold),S. epidermidis [2]; [4],20 fold
bismuth sulfadiazine,Zones of Inhibition Against Pseudomonas aeruginosa (mm) 2% Bismuth Salt,Pseudomonas aeruginosa; [6],6.5 mm
same,Zones of Inhibition Against Pseudomonas aeruginosa (mm) 2% Bismuth Salt + 3% Minocycline,Pseudomonas aeruginosa; [7],15.5 mm
"O=C([O-])CC(O)(CC(=O)[O-])C(=O)[O-].[Bi+3] [Bismuth citrate, bismuth citrate]",Zones of Inhibition Against Pseudomonas aeruginosa (mm) 2% Bismuth Salt,Pseudomonas aeruginosa,0 mm
same,Zones of Inhibition Against Pseudomonas aeruginosa (mm) 2% Bismuth Salt + 3% Minocycline,Pseudomonas aeruginosa,17 mm
bismuth palmitate,Zones of Inhibition Against Pseudomonas aeruginosa (mm) 2% Bismuth Salt,Pseudomonas aeruginosa,0 mm
same,Zones of Inhibition Against Pseudomonas aeruginosa (mm) 2% Bismuth Salt + 3% Minocycline,Pseudomonas aeruginosa,18.5 mm
"CO[C@H]1/C=C/O[C@@]2(C)Oc3c(C)c(O)c4c(O)c(c(/C=N/N5CCN(C)CC5)c(O)c4c3C2=O)NC(=O)/C(C)=C\C=C\[C@H](C)[C@H](O)[C@@H](C)[C@@H](O)[C@@H](C)[C@H](OC(C)=O)[C@@H]1C [Rifampin (R), rifampin]",INCREASE IN MIC (fold),S. epidermidis [2]; [4],"25,000 fold"
"O=[N+]([O-])[O-].O=[N+]([O-])[O-].O=[N+]([O-])[O-].[Bi+3] [Bismuth Nitrate, bismuth nitrate]",Zones of Inhibition Against Pseudomonas aeruginosa (mm) 2% Bismuth Salt,Pseudomonas aeruginosa; [6],0 mm
same,Zones of Inhibition Against Pseudomonas aeruginosa (mm) 2% Bismuth Salt + 3% Minocycline,Pseudomonas aeruginosa; [7],15 mm
bismuth salicylate,Zones of Inhibition Against Pseudomonas aeruginosa (mm) 2% Bismuth Salt,Pseudomonas aeruginosa,0 mm
same,Zones of Inhibition Against Pseudomonas aeruginosa (mm) 2% Bismuth Salt + 3% Minocycline,Pseudomonas aeruginosa,17 mm
"[Bi+3].[O-]B([O-])[O-] [Bismuth borate, bismuth borate]",Zones of Inhibition Against Pseudomonas aeruginosa (mm) 2% Bismuth Salt,Pseudomonas aeruginosa,0 mm
same,Zones of Inhibition Against Pseudomonas aeruginosa (mm) 2% Bismuth Salt + 3% Minocycline,Pseudomonas aeruginosa,13 mm
bismuth mandelate,Zones of Inhibition Against Pseudomonas aeruginosa (mm) 2% Bismuth Salt,Pseudomonas aeruginosa,0 mm
same,Zones of Inhibition Against Pseudomonas aeruginosa (mm) 2% Bismuth Salt + 3% Minocycline,Pseudomonas aeruginosa,18.5 mm

# Reference: patent publication US6582719B2, “Combinations of antiseptic and antibiotic agents that inhibit the development of resistant microorganisms” (priority 2001, dated 2003)
